# According to patent US20240316008A1, “TREATMENT OF SYSTEMIC IMMUNE ACTIVATION SYNDROMES” (TRANQUIS THERAPEUTICS, INC., priority 2020, published 2024):
# What was measured:
# Ppargc1α mRNA = Ppargc1α mRNA expression in BV2 cells (rt-PCR); type: cell-based, murine; conditions: concentrations ranging from 0.7 μM to 20 μM, normalized to beta-actin mRNA
# Description: RNA was processed for real-time PCR.
# TNFα = TNFα secretion from LPS-stimulated BV2 cells (CBA assay); type: cell-based, murine; conditions: 100 ng/ml LPS, 24 hours; for TNFα production by LPS-stimulated BV-2 myeloid cells: compared to control
# Description: LPS was used to induce cytokine secretion from BV-2 cells. Cells were incubated with TQS-168 at various concentrations to assess whether TQS-168 could suppress the LPS-promoted release of various cytokines from in vitro cell cultures. Cytokine secretion was measured by cytometric bead array (CBA) fluorescence-activated cell sorting (FACS).
# Briefly, a vial of BV2 frozen stock (1 million cells per ml in complete medium) was thawed into 10 mL of complete medium per vial for a total of 4 vials. The vials were then centrifuged at 1800 rpm for 3 minutes to wash away freezing media. The four vials were then pooled into 25 mL of complete medium. TQS-168 was prepared in DMSO.
# Cells were incubated for 24 hours in the presence of medium (negative control), LPS (positive control), DMSO+LPS (positive control, controlling additionally for presence of DMSO in the TQS-168 stock solution), or LPS+TQS-168 at final concentrations of 1 μM, 5 μM, 10 μM, and 20 μM.
# After the well plates were incubated overnight for 24 hours, they were centrifuged at 1800 rpm for 5 minutes. Next, 150 μl from each well was transferred to a new set of plates, of which 50 μl was used for CBA. The plates were then centrifuged with the cells, followed by addition of 100 μl of DAPI (50 ml of PBS+10 μl of DAPI stock at 1:5000 dilution). The plates were then incubated in the dark for 5 minutes, followed by addition of 100 μl of PBS and centrifuged at 1800 rpm for 5 minutes. Finally, the plates were resuspended in 200 μl of PBS and tested.
# Multiplexed cytometric bead array (CBA) assay was performed according to standard techniques to detect presence in the cell culture medium of secreted murine TNFα, IL-6, IFNγ, IL-12, monocyte chemoattractant protein 1 (MCP-1), and IL-10.
# A total of 4-11 replicates of BV2 cultures in different conditions were investigated. Frozen BV2 microglia cell line was thawed and propagated in complete media (RPMI, 10% heat inactivated FBS, 1% L-glutamine, 1% Pen-Strep) until growth rate reached log phase.
# Cells were stimulated with 100 ng/ml of LPS for 24 hours. […]
# TNF-α = experiment: LPS-induced TNF-α production of human PBMC (CBA assay); type: cell-based; conditions: 100 ng/ml LPS, 24 hours, compared to no treatment
# Description: Peripheral blood mononuclear cells (PBMC) from 4 different healthy volunteers were used in this study. Fresh blood samples were collected at Stanford Blood Center and processed for PBMC isolation with Ficoll gradient. PBMC samples were stored in liquid nitrogen at […] for subsequent analysis of TNF-α production. For TNF-α stimulation, frozen PBMC samples were thawed and rested at 37° C. before cells were stimulated with 100 ng/ml of LPS for 24 hours. DMSO (1:1000 final dilution) or TQS-168 in DMSO (1:1000 final dilution) at various concentrations was added to cell cultures of LPS-stimulated PBMC to evaluate the effects of T-168 on TNF-α production of human primary myeloid cells. After 24 hours stimulation, supernatant samples from various conditions were collected and TNF-α concentrations in the supernatants analyzed with cytometric bead array (CBA) assay per protocols from BD Biosciences. TNF-α was quantified by median fluorescent intensity reading (MFI). Samples were analyzed directly after staining with LSRII flow cytometer.
# [1] = system: 12 human primary cell-based systems; experiment: Eurofins BioMAP Diversity PLUS panel
# Description: TQS-168 was characterized in the Eurofins BioMAP Diversity PLUS panel of 12 human primary cell-based systems (FIG. 12). These systems are designed to model complex human tissue and disease biology of the vasculature, skin (fibrosis), pulmonary and immune systems and provide test agent characterization in an unbiased way across a broad set of systems modeling various human disease states. Quantitative measurements of biomarker activities across this broad panel, along with comparative analysis of the biological activities of known bioactive agents in the BioMAP reference database were used to predict the safety, efficacy and function of TQS-168. A BioMAP profile in the Diversity PLUS Panel was performed for TQS-168 at concentrations of 20 μM, 6.7 μM, 2.2 μM, and 740 nM. The Y-axis represents a log-transformed ratio of the biomarker readouts for the test agent-treated sample (n=1) over vehicle controls (average of ≥6 vehicle controls from the same plate). The grey region around the Y-axis represents the 95% significance envelope that was generated from the upper and lower bound values of historical vehicle controls. Biomarker activities were annotated when two or more consecutive concentrations change in the same direction relative to vehicle controls, were outside of the significance envelope, and have at least one concentration with an effect size >20% (|log10 ratio|>0.1). Biomarker key activities were described as modulated if these activities increase in some systems, but decreased in others.
# [2] = system: neurodegenerative diseases; conditions: murine models of Parkinson's disease, Alzheimer's disease, ALS; cited from earlier work
# sepsis = experiment: Mouse model of sepsis / hyperinflammation (virus followed by LPS, as described in Wang); conditions: mice, intravenous, various doses
# Description: Briefly, mice are anesthetized with a ketamine/xylazine mixture. A virus, such as a coronavirus, influenza virus, rhinovirus, respiratory syncytial virus, metapneumovirus, adenovirus, or a boca virus, is administered. The virus may be administered intranasally dropwise.
# Next, LPS diluted in a buffer, such as PBS, is injected intraperitoneally at specific doses.
# To provide comparators for assessing the effects of TQS-168 and its analogs, groups of positive control mice are treated with one or more antibodies against pro-inflammatory cytokines of interest: anti-NK1.1 antibody (PK136; Bio X Cell) diluted in PBS is injected at 100 μg per injection (100 μL) retro-orbitally concurrently with each challenge; anti-IFNγ antibody (XMG1.2, Bio X Cell) is diluted in PBS and injected at 500 μg per injection (100 μL) retro-orbitally concurrently with each challenge; anti-IL6R (15A7.10 mg/kg; Bio X Cell), anti-TNFα (XT3.11, 500 μg per injection; Bio X Cell), anti-IFNαR (MAR1-5A3, 10 mg/kg; Bio X Cell), and anti-IL1β (B122, 500 μg per injection; Bio X Cell) are injected retro-orbitally. For a negative control, isotype antibody is injected retro-orbitally.
# The pro-inflammatory cytokines can be measured using the ELISA assay described in Example 1.
# [3] = profile at 20 μM, 6.7 μM, 2.2 μM, 740 nM
compound,measurement,setting,value
"CC(C)(C)c1ccc(-c2nc3ccccc3[nH]2)cc1 [TQS-168, 2-(4-tert-butylphenyl)-1H-benzimidazole]",Ppargc1α mRNA expression,Ppargc1α mRNA,induces
same,TNFα production by LPS-stimulated BV-2 myeloid cells,TNFα; 5 μM,suppress
same,TNFα production by LPS-stimulated BV-2 myeloid cells,TNFα; 20 μM,suppress
same,LPS-induced secretion of TNFα,"TNFα; BV2 cells, 1 μM-20 μM",reduce
same,suppression of TNFα production,TNF-α; 5 μM,statistically significant suppression
same,suppression of TNFα production,TNF-α; 20 μM,statistically significant suppression
same,"T-cell proliferation, IgG, TNFα, and IL-8",[1]; 6.7 μM,inhibit
same,decrease in sIgG and sTNFα in B and T cells as compared to metformin hydrochloride at 5000 μM,[1]; 6.7 μM,greater decrease
same,"decrease in sIgG, sIL-17A, sIL-17F, sIL-2, sTNFα, sIL-6 from B and T cells","[1]; 20 μM, highest concentration of the profile",greatest decrease
same,"inflammatory markers Eotaxin-3, P-selectin, IL-8, PGE2, IP-10",[1]; [3],decreased
same,"proliferation of endothelial, B cells, T cells, coronary artery SMC & fibroblasts",[1]; [3],anti-proliferative
same,"tissue remodeling markers uPAR, MMP1, tPA, alpha-SMA, Collagen III",[1]; [3],modulated
same,disease severity,[2],reduce
same,myeloid-mediated inflammation,[2],suppress
same,circulating concentrations of pro-inflammatory cytokines,sepsis,effective in reducing
same,hyperinflammatory symptoms,sepsis,effective in reducing
